According to US20240294489A1 (Captor Therapeutics S.A., priority 2020, published 2024):

Assays:
Type in all cases: cell-based
KG-1a = experiment: Cell viability, additional cell lines (CellTiter-Glo), KG-1a; conditions: Homo sapiens, 72 h
Procedure: (§1) Tumor cells are grown at 37° C. in a humidified atmosphere with 5% CO2 in RPMI 1640 medium, supplemented with 10% (v/v) fetal calf serum and 50 μg/ml gentamicin for up to 20 passages, and are passaged once or twice weekly.
(§2) Cells are harvested from exponential phase cultures, counted and plated in 96 well flat-bottom microtiter plates at a cell density depending on the cell line's growth rate (4,000-20,000 cells/well depending on the cell line's growth rate, up to 60,000 for hematological cancer cell lines) in RPMI 1640 medium supplemented with 10% (v/v) fetal calf serum and 50 μg/ml gentamicin (140 μl/well). Cultures are incubated at 37° C. and 5% CO2 in a humidified atmosphere. After 24 h, 10 μl of test compounds or control medium are added and left on the cells for another 72 h. Compounds are serially diluted in DMSO, transferred in cell culture medium, and added to the assay plates by using a Tecan Freedom EVO 200 robotic platform. The DMSO concentration is kept constant at 0.3% v/v across the assay plate. Viability of cells is quantified by the CellTiter-Glo® cell viability assay (Promega G8462). After incubation of cells, 100 μl of CellTiter-Glo® One Solution Assay reagent are added to each well. Plates are shaken for 2 minutes to induce cell lysis and incubated for 20 minutes prior to reading luminescence (LU) by using the EnVision® Xcite multilabel plate reader (Perkin Elmer). […]

U-937 = experiment: Cell viability, additional cell lines (CellTiter-Glo), U-937; conditions: Homo sapiens, U-937, 72 h; read-out: Absolute IC50
Procedure: as §1, §2

Ikaros (IKZF1) = target: T1, Ikaros (IKZF1) (Homo sapiens, UniProt Q13422+Q96SW2); experiment: Ikaros degradation assay, H929 cell line; conditions: NCI-H929, H929 cells, 24 h, read-out: % of IKZF1 protein reduction
T1 construct: Ikaros degradation in the H929 cell line was investigated; endogenous in cells; host or cells: H929
T1 sequence (Q13422 whole entry): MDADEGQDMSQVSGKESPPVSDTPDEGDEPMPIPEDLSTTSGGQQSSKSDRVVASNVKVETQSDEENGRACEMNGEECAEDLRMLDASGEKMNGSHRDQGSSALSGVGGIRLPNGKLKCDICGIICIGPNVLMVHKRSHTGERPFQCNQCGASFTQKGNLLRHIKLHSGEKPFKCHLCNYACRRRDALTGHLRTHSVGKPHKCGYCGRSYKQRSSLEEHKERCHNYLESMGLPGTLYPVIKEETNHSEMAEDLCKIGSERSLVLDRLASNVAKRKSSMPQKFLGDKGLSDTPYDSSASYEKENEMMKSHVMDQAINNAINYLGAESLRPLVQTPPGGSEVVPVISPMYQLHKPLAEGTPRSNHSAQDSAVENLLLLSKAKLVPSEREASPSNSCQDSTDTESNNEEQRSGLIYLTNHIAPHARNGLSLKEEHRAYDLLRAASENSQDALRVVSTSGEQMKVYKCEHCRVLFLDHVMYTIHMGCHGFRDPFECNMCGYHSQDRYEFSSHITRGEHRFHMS
T1 sequence (Q96SW2 whole entry): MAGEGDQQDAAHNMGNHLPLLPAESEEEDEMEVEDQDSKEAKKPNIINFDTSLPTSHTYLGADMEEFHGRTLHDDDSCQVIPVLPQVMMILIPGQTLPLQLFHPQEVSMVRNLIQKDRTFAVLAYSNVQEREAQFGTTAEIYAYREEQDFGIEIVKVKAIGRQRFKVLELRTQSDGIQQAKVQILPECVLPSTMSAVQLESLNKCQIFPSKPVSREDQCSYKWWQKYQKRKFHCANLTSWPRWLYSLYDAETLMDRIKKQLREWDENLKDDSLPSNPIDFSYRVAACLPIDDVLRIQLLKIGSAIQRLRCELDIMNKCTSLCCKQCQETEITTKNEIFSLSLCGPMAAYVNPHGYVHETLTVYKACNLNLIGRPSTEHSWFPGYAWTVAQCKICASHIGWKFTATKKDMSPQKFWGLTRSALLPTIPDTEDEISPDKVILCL
T1 sequence (Q16531 whole entry partner): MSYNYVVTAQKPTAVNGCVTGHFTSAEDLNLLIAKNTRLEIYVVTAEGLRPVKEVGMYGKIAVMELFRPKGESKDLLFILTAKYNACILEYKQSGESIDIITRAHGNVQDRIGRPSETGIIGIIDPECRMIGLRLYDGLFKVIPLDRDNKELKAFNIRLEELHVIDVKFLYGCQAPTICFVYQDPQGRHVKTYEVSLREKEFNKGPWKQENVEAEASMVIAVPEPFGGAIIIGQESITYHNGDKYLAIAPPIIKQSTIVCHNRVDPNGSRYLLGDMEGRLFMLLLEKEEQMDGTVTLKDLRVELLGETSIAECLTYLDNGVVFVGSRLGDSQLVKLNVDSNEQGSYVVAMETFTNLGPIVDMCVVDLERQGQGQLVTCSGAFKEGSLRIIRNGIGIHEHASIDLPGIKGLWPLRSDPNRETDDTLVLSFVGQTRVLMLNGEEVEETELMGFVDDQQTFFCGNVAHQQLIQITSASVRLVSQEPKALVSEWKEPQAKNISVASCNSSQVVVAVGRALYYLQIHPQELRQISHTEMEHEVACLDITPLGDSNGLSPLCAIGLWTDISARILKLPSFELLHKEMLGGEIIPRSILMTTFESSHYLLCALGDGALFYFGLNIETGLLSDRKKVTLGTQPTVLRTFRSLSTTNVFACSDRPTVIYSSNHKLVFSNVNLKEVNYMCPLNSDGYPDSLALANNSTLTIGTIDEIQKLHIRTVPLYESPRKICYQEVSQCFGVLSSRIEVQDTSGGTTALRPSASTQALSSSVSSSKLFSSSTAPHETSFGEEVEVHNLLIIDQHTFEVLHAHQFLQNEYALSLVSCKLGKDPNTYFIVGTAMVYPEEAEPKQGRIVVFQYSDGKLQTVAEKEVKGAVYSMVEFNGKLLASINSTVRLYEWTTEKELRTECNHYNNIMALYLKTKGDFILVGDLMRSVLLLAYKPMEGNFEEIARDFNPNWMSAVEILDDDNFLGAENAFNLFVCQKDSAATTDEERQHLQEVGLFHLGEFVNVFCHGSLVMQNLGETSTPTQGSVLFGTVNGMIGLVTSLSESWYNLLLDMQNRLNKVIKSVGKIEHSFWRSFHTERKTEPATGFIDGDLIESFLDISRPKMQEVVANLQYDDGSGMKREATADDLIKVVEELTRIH
Method in brief: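 Cells were exposed to test compounds over a concentration range for 24 h at 37° C, 5% CO2, then lysed in RIPA buffer. Equal protein (BCA) was resolved by SDS-PAGE and immunoblotted. Band densitometry gave the protein levels used for evaluation.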

PL-21 = experiment: Cell viability, additional cell lines (CellTiter-Glo), PL-21; conditions: PL-21, 72 h; read-out: Absolute IC50
Procedure: as §1, §2

U-266 = experiment: Cell viability, additional cell lines (CellTiter-Glo), U-266; conditions: Homo sapiens, U-266, 72 h; read-out: Absolute IC50
Procedure: as §1, §2

HEP-3B = experiment: Cell viability, additional cell lines (CellTiter-Glo), HEP-3B; conditions: Homo sapiens, Hep3B, 72 h
Procedure: as §1, §2

OCI-AML2 = experiment: Cell viability, additional cell lines (CellTiter-Glo), OCI-AML2; conditions: Homo sapiens, OCI-AML2, 72 h; read-out: Absolute IC50
Procedure: as §1, §2

22Rv1 = experiment: Cell viability, additional cell lines (CellTiter-Glo), 22Rv1; conditions: Homo sapiens, 22Rv1, 72 h
Procedure: as §1, §2

MOLT-4 = experiment: Cell viability, additional cell lines (CellTiter-Glo), MOLT-4; conditions: Homo sapiens, MOLT-4, 72 h
Procedure: as §1, §2

MOLM-6 = experiment: Cell viability, additional cell lines (CellTiter-Glo), MOLM-6; conditions: MOLM-6, 72 h
Procedure: as §1, §2

OPM-2 = experiment: Cell viability, additional cell lines (CellTiter-Glo), OPM-2; conditions: Homo sapiens, OPM-2, 72 h; read-out: Absolute IC50
Procedure: as §1, §2

Kelly cells = experiment: Cell survival clonogenic assay, Kelly; conditions: 0.1-10 μM, crystal violet staining after 9-10 days
Procedure: To determine the ability of a single cell to form a colony (defined as a cluster of at least 50 cells), Kelly and Hep3B cells were maintained in RPM11640 (Kelly) or EMEM (Hep3B) medium, supplemented with penicillin/streptomycin and 10% FBS. The cells were counted and seeded on the 6-well plates, at the density of 1×10^3 cells per well, the compounds to be tested were added at the desired concentration range, and the cells were cultured at 37° C./5% CO2. After colony formation (9-10 days), the cells were washed and treated with 6.0% glutaraldehyde and 0.5% crystal violet mix for 30 min., followed by rinsing with water and drying at room temperature (RT).

MOLP-2 = experiment: Cell viability, additional cell lines (CellTiter-Glo), MOLP-2; conditions: MOLP-2, 72 h
Procedure: as §1, §2

KG-1 = experiment: Cell viability, additional cell lines (CellTiter-Glo), KG-1; conditions: Homo sapiens, KG-1, 72 h
Procedure: as §1, §2

LP-1 = experiment: Cell viability, additional cell lines (CellTiter-Glo), LP-1; conditions: Homo sapiens, LP-1, 72 h; read-out: Absolute IC50
Procedure: as §1, §2

[1] = 9.5 μM, read-out: Test/Control viability at 9.5 μM

## NCc1ccc2c(c1)CN(C1CCC(=O)NC1=O)C2=O (centres unmarked) [Compound 1, 3-(5-(aminomethyl)-1-oxoisoindolin-2-yl)piperidine-2,6-dione]
KG-1a; [1]
  viability at 9.5 µM: ≤ 30%
KG-1a; read-out: Absolute IC50
  IC50: ≤ 0.1 µM
U-937
  IC50: > 30 µM
Ikaros (IKZF1); 10 uM
  inhibition at 10 µM: 0 to 24%
Ikaros (IKZF1); 20 uM
  inhibition at 20 µM: 0 to 24%
PL-21
  IC50: > 30 µM
U-266
  IC50: > 30 µM
HEP-3B; [1]
  viability at 9.5 µM: ≤ 30%
HEP-3B; read-out: Absolute IC50
  IC50: 0.1 to 1 µM
OCI-AML2
  IC50: > 30 µM
22Rv1; read-out: Absolute IC50
  IC50: ≥ 30 µM
22Rv1; [1]
  viability at 9.5 µM: ≤ 60%
MOLT-4; read-out: Absolute IC50
  IC50: ≥ 30 µM
MOLT-4; [1]
  viability at 9.5 µM: ≤ 60%
MOLM-6; [1]
  viability at 9.5 µM: ≤ 60%
MOLM-6; read-out: Absolute IC50
  IC50: 0.1 to 1 µM
OPM-2
  IC50: > 30 µM
Kelly cells
  survival of the cells (colony formation): in most cases inhibited
MOLP-2; [1]
  viability at 9.5 µM: ≤ 60%
MOLP-2; read-out: Absolute IC50
  IC50: 0.1 to 1 µM
KG-1; read-out: Absolute IC50
  IC50: ≤ 0.1 µM
KG-1; [1]
  viability at 9.5 µM: ≤ 30%
LP-1
  IC50: > 30 µM
